Measured values reported in US20140357633A1, “COMPOUNDS FOR INHIBITING THE INTERACTION OF BCL2 WITH BINDING PARTNERS” (NOVARTIS AG, priority 2011, published 2014).

How the values were obtained:
[1] = molecular target: BCL-2 (binding to BAD peptide) (Homo sapiens, UniProt P10415); test: SPR (Biacore) solution inhibition assay, BCL-2 binding to immobilized BAD peptide; details: biotinylated BAD peptide surface, 56 nM BCL-2, 25° C.; range = high and low IC50 values from multiple experiments; read-out: BCL2_SPR IC50 BAD
Excerpt: (§1) The present method includes utility of a Surface plasmon resonance (SPR)-based biosensor (Biacore™′ GE Healthcare, Uppsala, Sweden) to characterize BCL-2 inhibitors.
(§2) Biacore™ utilizes the phenomenon of surface plasmon resonance (SPR) to detect and measure binding interactions. In a typical Biacore experiment, one of the interacting molecules (ligand) is immobilized on a flexible dextran matrix while the interacting partner (analyte) is allowed to flow across that surface. A binding interaction results in an increase in mass on the sensor surface and a corresponding direct change in the refractive index of the medium in the vicinity of the sensor surface. Changes in refractive index or signal are recorded in resonance units (R.U.) Signal changes due to association and dissociation of complexes are monitored in a non-invasive manner, continuously and in real-time, the results of which are reported in the form of a sensorgram.
(§3) The SPR assay is configured to examine solution inhibition of BCL-2 binding to peptide derivatized sensor surfaces to generate IC50 values as a measure of inhibitor potency.
(§4) Biacore™ A100 (GE Healthcare, Uppsala, Sweden) was used to conduct all experiments reported herein. Sensor surface preparation and all interaction analyses experiments were performed at 25° C. Reagents were purchased from GE Healthcare. Running buffer containing 10 mM Hepes, pH7.4, 150 mM sodium chloride, 1.25 mM Dithiothreitol, 3% Dimethyl sulfoxide and 0.05% polysorbate 20 were utilized throughout all analyses.
(§5) Biotinylated BAK, BAD and NOXA peptides were diluted to 10 nM in running buffer and captured onto a sensor surface pre-derivatized with streptavidin (sensor chip SA) to peptide surface densities in the range 50-100 R.U. Peptide captured surfaces were blocked with 500 μM PEO2-Biotin.
(§6) Interaction analyses were performed by first equilibrating each sample within a 6 point three fold compound dilution series in the range 16 μM to […] with 56 nM BCL-2 for one hour during instrument start-up procedures. Protein compound mixtures were then injected over each peptide surface in parallel for 60 seconds at a flow-rate of 30 μL/min. 56 nM BCL-2 control samples were also prepared and run at regular intervals during the assay. Surface regeneration was performed at the end of each analysis cycle by two 30 second injections of 10 mM Glycine, pH 2.5, 1M Sodium Chloride, 0.05% polysorbate 20. Samples and control compound samples were run in duplicate and controls are also run at regular intervals during the assay to monitor surface and assay performance.
(§7) Data analyses are carried out using Biacore™ A100 evaluation software v1.1 to validate assay quality. Binding level report points were used relative to BCL-2 control samples to calculate % inhibition values for each compound protein mixture. […] The range of data shown in table 1 represents the high and low IC50 values obtained from multiple experiments.

[2] = molecular target: BCL-2 (binding to BAK peptide) (Homo sapiens, UniProt P10415); test: SPR (Biacore) solution inhibition assay, BCL-2 binding to immobilized BAK peptide; details: biotinylated BAK peptide surface, 56 nM BCL-2, 25° C.; range = high and low IC50 values from multiple experiments; read-out: BCL2_SPR IC50 BAK
Excerpt: as §1, §2, §3, §4, §5, §6, §7

Chain of BCL-2 (binding to BAK peptide) (P10415 whole entry): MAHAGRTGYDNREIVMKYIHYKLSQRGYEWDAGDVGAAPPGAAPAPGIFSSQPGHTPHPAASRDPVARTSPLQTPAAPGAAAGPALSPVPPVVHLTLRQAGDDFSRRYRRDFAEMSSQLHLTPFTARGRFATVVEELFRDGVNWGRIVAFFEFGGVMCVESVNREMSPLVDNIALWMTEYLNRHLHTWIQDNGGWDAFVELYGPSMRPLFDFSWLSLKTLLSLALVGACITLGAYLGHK
Chain of BCL-2 (binding to BAD peptide) (P10415 whole entry): as above

Compound | IC50 [1] [nM] | IC50 [2] [nM]
CCCCN(CCCC)C(=O)c1cc(C)n(-c2ccc(NC(=O)CCCc3ccc([N+](=O)[O-])cc3)cc2C(=O)N2Cc3ccccc3C[C@H]2CO)n1 [Example 61] | 306 to 319 | 229 to 271
CCCCN(CCCC)C(=O)c1cc(C)n(-c2ccc(NC(=O)c3ncccc3O)cc2C(=O)N2Cc3ccccc3C[C@H]2CO)n1 [Example 62] | 318 to 326 | 238 to 277
CCCCN(CCCC)C(=O)c1cc(C)n(-c2ccc(NC(=O)Cc3c(C)[nH]c4c(F)cccc34)cc2C(=O)N2Cc3ccccc3C[C@H]2CO)n1 [Example 63] | 67.4 to 76.1 | 58.3 to 61.2
CCCCN(CCCC)C(=O)c1cc(C)n(-c2ccc(NC(=O)CCSc3ccc4ccccc4c3)cc2C(=O)N2Cc3ccccc3C[C@H]2CO)n1 [Example 64] | 138 to 149 | 112 to 133
CCCCN(CCCC)C(=O)c1cc(C)n(-c2ccc(NC(=O)[C@@H]3COc4ccccc4O3)cc2C(=O)N2Cc3ccccc3C[C@H]2CO)n1 [Example 65] | 172 to 173 | 137 to 140
CCCCN(CCCC)C(=O)c1cc(C)n(-c2ccc(NC(=O)COc3ccccc3C#N)cc2C(=O)N2Cc3ccccc3C[C@H]2CO)n1 [Example 66] | 142 | 106 to 116
CCCCN(CCCC)C(=O)c1cc(C)n(-c2ccc(NC(=O)C3Oc4cc5ccccc5cc4O3)cc2C(=O)N2Cc3ccccc3C[C@H]2CO)n1 [Example 67] | 48.9 to 52.7 | 43.1 to 46
CCCCN(CCCC)C(=O)c1cc(C)n(-c2ccc(NC(=O)c3ccccc3Oc3ccccc3)cc2C(=O)N2Cc3ccccc3C[C@H]2CO)n1 [Example 68] | 122 to 125 | 100 to 103
CCCCN(CCCC)C(=O)c1cc(C)n(-c2ccc(NC(=O)Cc3cccc(OC)c3)cc2C(=O)N2Cc3ccccc3C[C@H]2CO)n1 [Example 69] | 91.3 to 101 | 67.3 to 73.9
CCCCN(CCCC)C(=O)c1cc(C)n(-c2ccc(NC(=O)Cc3cc(F)ccc3OC)cc2C(=O)N2Cc3ccccc3C[C@H]2CO)n1 [Example 70] | 143 to 158 | 133 to 134
CCCCN(CCCC)C(=O)c1cc(C)n(-c2ccc(NC(=O)c3cc(S(N)(=O)=O)ccc3OC)cc2C(=O)N2Cc3ccccc3C[C@H]2CO)n1 [Example 71] | 93.5 to 99.9 | 72 to 74.7
CCCCN(CCCC)C(=O)c1cc(C)n(-c2ccc(NC(=O)C(OC)c3ccccc3)cc2C(=O)N2Cc3ccccc3C[C@H]2CO)n1 (stereo partly drawn) [Example 72] | 56.8 to 58.8 | 48.5 to 49.6
CCCCN(CCCC)C(=O)c1cc(C)n(-c2ccc(NC(=O)c3c(C)n(C)n(-c4ccccc4)c3=O)cc2C(=O)N2Cc3ccccc3C[C@H]2CO)n1 [Example 73] | 74.1 to 100 | 58.7 to 82.9
CCCCN(CCCC)C(=O)c1cc(C)n(-c2ccc(NC(=O)C(CCNC(C)=O)c3ccccc3)cc2C(=O)C2Cc3ccccc3C[C@H]2CO)n1 (stereo partly drawn) [Example 74] | 95.1 to 96 | 80.8 to 81.4
CCCCN(CCCC)C(=O)c1cc(C)n(-c2ccc(NC(=O)Cc3cccc(F)c3)cc2C(=O)C2Cc3ccccc3C[C@H]2CO)n1 (stereo partly drawn) [Example 75] | 66.6 to 70 | 53.2 to 59
CCCCN(CCCC)C(=O)c1cc(C)n(-c2ccc(NC(=O)Cc3cccc(Cl)c3)cc2C(=O)N2Cc3ccccc3C[C@H]2CO)n1 [Example 76] | 59.8 to 59.9 | 50.5 to 51.3
CCCCN(CCCC)C(=O)c1cc(C)n(-c2ccc(NC(=O)Cc3ccc(OC)cc3)cc2C(=O)N2Cc3ccccc3C[C@H]2CO)n1 [Example 77] | 65.8 to 71 | 55.8 to 64.3
CCCCN(CCCC)C(=O)c1cc(C)n(-c2ccc(NC(=O)Cc3ccc(OC)c(C(F)(F)F)c3)cc2C(=O)N2Cc3ccccc3C[C@H]2CO)n1 [Example 78] | 99.9 to 103 | 73.6 to 83.8
CCCCN(CCCC)C(=O)c1cc(C)n(-c2ccc(NC(=O)CCc3cn4cccnc4n3)cc2C(=O)N2Cc3ccccc3C[C@H]2CO)n1 [Example 79] | 369 to 398 | 299 to 351
CCCCN(CCCC)C(=O)c1cc(C)n(-c2ccc(NC(=O)c3oc4ccccc4c3C)cc2C(=O)N2Cc3ccccc3C[C@H]2CO)n1 [Example 80] | 908 to 1110 | 1030 to 1070
CCCCN(CCCC)C(=O)c1cc(C)n(-c2ccc(NC(=O)c3sccc3C)cc2C(=O)N2Cc3ccccc3C[C@H]2CO)n1 [Example 81] | 1420 to 1460 | 1040 to 1490
